Data from patent US10464925B2, “Methods to induce targeted protein degradation through bifunctional molecules” (Dana-Farber Cancer Institute, Inc., priority 2015, dated 2019).
Where two headings read alike, the source gives them in different places. Values belong to the compound of their own block, whether it stands above or below them.

Tests used:
BRDT = BRDT (Homo sapiens, UniProt Q58F21); assay: BRDT IC50 (Table 4); format: binding; conditions: read-out: IC50 (nM) BRDT
797 = assay: Cell viability, 797 cells (Table 4); format: cell-based; conditions: read-out: IC50 (nM) 797
CUTL1 = assay: Cell viability, ATPlite 48 hours, CUTLL1; format: cell-based; conditions: CUTL1 cells
DND41 = assay: Cell viability, ATPlite 48 hours, DND41; format: cell-based; conditions: DND41 cells
MOLT4 = assay: Cell viability, ATPlite 48 hours, MOLT4; format: cell-based; conditions: Homo sapiens, MOLT-4; MOLT4 cells
NGP = assay: Cell viability, ATPlite 72 hours; format: cell-based; conditions: NGP cells, Table 4; read-out: IC50 (nM) NGP
[1] = target: T1, BRD4 adjoined to nanoluciferase (Nluc) (Homo sapiens, UniProt O60885+Q96SW2); assay: BRD4 Dual Luciferase Assay; format: cell-based; conditions: for Emax: BRD4 remaining at Emax, read-out: BRD4− Emax (percent remaining);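 for all read-outs here: transduced reporter cells exposed to compound for 4 h, then Nluc and Fluc luminescence read, each normalized to DMSO controls and expressed as Nluc/Fluc ratio per well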
T1 construct: expressed in transfected cells

BRD4 [2] = target: T2, BRD4 (Homo sapiens, UniProt O60885); assay: BRD4 Cell Western (BRD4 levels in 293T cells, LiCOR); format: cell-based; design: BRD4 levels in the cells after the dBET treatment; endogenous in cells; conditions: HEK-293T; read-out: BRD4 max degradation(%) Cell Western
BRD4 [3] = target: T2, BRD4; assay: BRD4 AlphaScreen; format: binding; design: […]; His tag (inferred from capture on Ni-coated acceptor beads)
CRBN-DDB1 = target: T3, CRBN-DDB1 (Homo sapiens, UniProt Q96SW2); assay: CRBN-DDB1 Ligand-Displacement AlphaScreen Assay (thalidomide competition); format: binding;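 note: streptavidin donor and nickel chelate acceptor bead proximity signal after 30 min incubation, normalized with no-protein background as 0% and DMSO wells as 100% activity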
T3 construct: 6xHis (given for the complex); made in house; host or cells: Sf9 cells (Invitrogen), pFastBac

CRBN = target: T4, CRBN (Homo sapiens, UniProt Q96SW2); assay: Intracellular CRBN Engagement Assay (dFKBP7 rescue); format: cell-based; conditions: competition with 80 nM dFKBP7, 3 hours; read-out: FKBP7 rescue (EC50)
T4 construct: endogenous in cells

[4] = test system: IKZF1 adjoined to nanoluciferase (Nluc); assay: IKZF1 Dual Luciferase Assay; format: cell-based; design: Nluc/Fluc IKZF1 Max Degradation: unit: %; conditions: 293 FT cells, 4 hours; for IC50: read-out: Nluc/Fluc IKZF1 IC50
[5] = 4 hours, read-out: max degradation (dual luc)
[6] = read-out: BRD4 max degradation(%) Dual Luciferase
[7] = biotin-thalidomide competition, read-out: THAL ALPHA (IC50)

Structure (SMILES): Cc1sc2c(c1C)C(c1ccc(C#N)cc1)=N[C@@H](CC(=O)NCCCCNC(=O)COc1cccc3c1C(=O)N(C1CCC(=O)NC1=O)C3=O)c1nnc(C)n1-2 (stereo partly shown) [dBET17]
IC50 (BRDT): 217 nM
IC50 797: 5020 nM
IC50 (CUTL1): > 20000 nM
IC50 (DND41): 17300 nM
IC50 (MOLT4): 13500 nM
IC50 (NGP): > 20000 nM

Structure (SMILES): Cc1sc2c(c1C)C(c1ccc(Cl)cc1)=N[C@@H](CC(=O)NCCCCCCNC(=O)COc1cccc3c1C(=O)N(C1CCC(=O)NC1=O)C3=O)c1nnc(C)n1-2 (stereo partly shown) [dBET5]
IC50 (BRDT): 110 nM
Dmax [1, 5]: 53%
Emax [1]: 44.7%
Dmax [1, 6]: 53%
Dmax (BRD4 [2]): 66%

Structure (SMILES): Cc1cnc(Nc2ccc(N3CCN(C(=O)CCC(=O)NCCCOCCOCCOCCCNC(=O)COc4cccc5c4C(=O)N(C4CCC(=O)NC4=O)C5=O)CC3)cc2)nc1Nc1cccc(S(=O)(=O)NC(C)(C)C)c1 (stereo not shown) [dBET34]
IC50 797: 3920 nM
Dmax [1, 5]: 24%
Dmax [1, 6]: 24%
IC50 (BRD4 [3]; read-out: BRD4 Alpha (IC50)): 1540 nM
IC50 (BRD4 [3]; read-out: IC50 (nM) BRD4): 1540 nM

Structure (SMILES): Cc1sc2c(c1C)C(c1ccc(Cl)cc1)=N[C@@H](CC(=O)NCCNC(=O)COc1cccc3c1C(=O)N(C1CCC(=O)NC1=O)C3=O)c1nnc(C)n1-2 (stereo partly shown) [dBET3]
IC50 (BRDT): 88 nM
Conc@Emax [1]: 0.5 µM
Dmax [1, 5]: 12.7%
Emax [1]: 84%
Dmax [1, 6]: 13%
Dmax (BRD4 [2]): 31.6%

Structure (SMILES): CC[C@@H]1C(=O)N(C)c2cnc(Nc3ccc(C(=O)NCCCCCCNC(=O)COc4cccc5c4C(=O)N(C4CCC(=O)NC4=O)C5=O)cc3OC)nc2N1C1CCCC1 (stereo partly shown) [dBET7]
IC50 (BRDT): 549 nM
IC50 797: 16 nM
IC50 (CUTL1): 29.2 nM
IC50 (DND41): 31.4 nM
IC50 (MOLT4): 46.6 nM
Conc@Emax [1]: 0.5 µM
Dmax [1, 5]: 54.1%
Emax [1]: 43.7%
Dmax [1, 6]: 54%
IC50 (NGP): 131 nM
Dmax (BRD4 [2]): 63%

Structure (SMILES): Cc1c(CC#N)sc2c1C(c1ccc(Cl)cc1)=N[C@@H](CC(=O)NCCCCNC(=O)COc1cccc3c1C(=O)N(C1CCC(=O)NC1=O)C3=O)c1nnc(C)n1-2 (stereo partly shown) [dBET19]
IC50 (BRDT): 1130 nM
IC50 797: > 20000 nM
Dmax [1, 5]: -1.3%
Emax [1]: 93.3%
Dmax [1, 6]: > 5%
IC50 (CRBN-DDB1; [7]): 0.00362 µM
EC50 (CRBN): 4330 µM
IC50 (BRD4 [3]; read-out: BRD4 Alpha (IC50)): 212 nM
IC50 (BRD4 [3]; read-out: IC50 (nM) BRD4): 212 nM

Structure (SMILES): Cc1c(C(=O)NCCCCNC(=O)COc2cccc3c2C(=O)N(C2CCC(=O)NC2=O)C3=O)sc2c1C(c1ccc(Cl)cc1)=N[C@@H](CC(=O)NCCCN1CCN(C)CC1)c1nnc(C)n1-2 (stereo partly shown) [dBET30]
Conc@Emax [1]: 50 µM
Dmax [1, 5]: 78.5%
Emax [1]: 26.2%
Dmax [1, 6]: 79%
IC50 (CRBN-DDB1; [7]): 0.0265 µM
EC50 (CRBN): 3140 µM

Structure (SMILES): Cc1noc(C)c1-c1ccc(-c2nc3cnccn3c2NCC(=O)NCCCCNC(=O)COc2cccc3c2C(=O)N(C2CCC(=O)NC2=O)C3=O)cc1 (stereo not shown) [dBET13]
IC50 (CRBN-DDB1; [7]): 0.0107 µM
EC50 (CRBN): 220 µM
IC50 (BRD4 [3]; read-out: BRD4 Alpha (IC50)): 6930 nM
IC50 (BRD4 [3]; read-out: IC50 (nM) BRD4): 6930 nM

Structure (SMILES): Cc1cnc(Nc2ccc(N3CCN(C(=O)CCC(=O)NCCCCNC(=O)COc4cccc5c4C(=O)N(C4CCC(=O)NC4=O)C5=O)CC3)cc2)nc1Nc1cccc(S(=O)(=O)NC(C)(C)C)c1 (stereo not shown) [dBET32]
IC50 797: 5730 nM
Dmax [1, 5]: 50%
Dmax [1, 6]: 50%
IC50 (BRD4 [3]; read-out: BRD4 Alpha (IC50)): 3300 nM
IC50 (BRD4 [3]; read-out: IC50 (nM) BRD4): 3300 nM

Structure (SMILES): Cc1sc2c(c1C)C(c1ccc(Cl)cc1)=N[C@@H](CC(=O)NCCCCOc1cccc3c1C(=O)N(C1CCC(=O)NC1=O)C3=O)c1nnc(C)n1-2 (stereo partly shown) [dBET28]
Dmax [1, 5]: < 5%
Emax [1]: 91.2%
Dmax [1, 6]: > 5%
IC50 (CRBN-DDB1; [7]): 0.0171 µM
EC50 (CRBN): 7.73 µM

Structure (SMILES): CC[C@@H]1C(=O)N(C)c2cnc(Nc3ccc(C(=O)NCCCCCCCCNC(=O)COc4cccc5c4C(=O)N(C4CCC(=O)NC4=O)C5=O)cc3OC)nc2N1C1CCCC1 (stereo partly shown) [dBET8]
IC50 (BRDT): 820 nM
IC50 (CUTL1): 42 nM
IC50 (DND41): 47.2 nM
IC50 (MOLT4): 88.5 nM
IC50 (NGP): 153 nM

Structure (SMILES): Cc1noc(C)c1-c1ccc(-c2nc3cnccn3c2NCC(=O)NCCCOCCOCCOCCCNC(=O)COc2cccc3c2C(=O)N(C2CCC(=O)NC2=O)C3=O)cc1 (stereo not shown) [dBET14]
IC50 (CRBN-DDB1; [7]): 0.0124 µM
EC50 (CRBN): 227 µM
IC50 (BRD4 [3]; read-out: BRD4 Alpha (IC50)): 8830 nM
IC50 (BRD4 [3]; read-out: IC50 (nM) BRD4): 8830 nM

Structure (SMILES): Cc1cnc(Nc2ccc(N3CCN(C(=O)CCC(=O)NCCCCCCCCNC(=O)COc4cccc5c4C(=O)N(C4CCC(=O)NC4=O)C5=O)CC3)cc2)nc1Nc1cccc(S(=O)(=O)NC(C)(C)C)c1 (stereo not shown) [dBET33]
IC50 797: 4000 nM
Dmax [1, 5]: 9.96%
Dmax [1, 6]: < 10%
IC50 (BRD4 [3]; read-out: BRD4 Alpha (IC50)): 4990 nM
IC50 (BRD4 [3]; read-out: IC50 (nM) BRD4): 4990 nM

The next lines start with results.

IC50 (CRBN-DDB1; read-out: CRBN alpha IC50): 3.25 µM
IC50 [4]: > 50 µM
Structure (SMILES): O=C1CCC(N2C(=O)c3cccc([N+](=O)[O-])c3C2=O)C(=O)N1 [Compound D-10, 2-(2,6-dioxopiperidin-3-yl)-4-nitroisoindoline-1,3-dione]

IC50 (CRBN-DDB1; read-out: CRBN alpha IC50): 0.2 µM
IC50 [4]: > 50 µM
Structure (SMILES): CCN(CC)c1ccc2c(c1)C(=O)N(C1CCC(=O)NC1=O)C2=O [Compound D-27, 5-(diethylamino)-2-(2,6-dioxopiperidin-3-yl)isoindoline-1,3-dione]

IC50 (CRBN-DDB1; read-out: CRBN alpha IC50): 0.0589 µM
IC50 [4]: > 50 µM
Structure (SMILES): O=C1CCC(N2C(=O)c3ccc(NCc4ccccc4)cc3C2=O)C(=O)N1 [Compound D-25, 5-(benzylamino)-2-(2,6-dioxopiperidin-3-yl)isoindoline-1,3-dione]

IC50 (CRBN-DDB1; read-out: CRBN alpha IC50): 126 µM
IC50 [4]: > 50 µM
Structure (SMILES): Cc1nc2ccccc2c(=O)n1C1CC(=O)NC1=O [Compound D-11, 3-(2-methyl-4-oxoquinazolin-3(4H)-yl)pyrrolidine-2,5-dione]

IC50 (CRBN-DDB1; read-out: CRBN alpha IC50): 0.608 µM
IC50 [4]: > 50 µM
Structure (SMILES): O=C1CCC(N2C(=O)c3cccc(F)c3C2=O)C(=O)N1 [Compound D-14, 2-(2,6-dioxopiperidin-3-yl)-4-fluoroisoindoline-1,3-dione]

IC50 (CRBN-DDB1; read-out: CRBN alpha IC50): 0.667 µM
Structure (SMILES): CC(=O)Nc1cccc2c1C(=O)N(C1CCC(=O)NC1=O)C2=O [Compound D-3, N-(2-(2,6-dioxopiperidin-3-yl)-1,3-dioxoisoindolin-4-yl)acetamide]
Nluc/Fluc IKZF1 Max Degradation [4]: 38.24

IC50 (CRBN-DDB1; read-out: CRBN alpha IC50): 0.375 µM
Structure (SMILES): O=C1CCC(N2C(=O)c3cccc(CNC(=O)C4CC4)c3C2=O)C(=O)N1 [Compound D-22, N-((2-(2,6-dioxopiperidin-3-yl)-1,3-dioxoisoindolin-4-yl)methyl)cyclopropanecarboxamide]
Nluc/Fluc IKZF1 Max Degradation [4]: 52.96

IC50 (CRBN-DDB1; read-out: CRBN alpha IC50): 14.5 µM
Structure (SMILES): Cc1nc2ccccc2c(=O)n1C1CCC(=O)NC1=O [Compound D-9, 3-(2-methyl-4-oxoquinazolin-3(4H)-yl)piperidine-2,6-dione]
Nluc/Fluc IKZF1 Max Degradation [4]: 67.23

IC50 (CRBN-DDB1; read-out: CRBN alpha IC50): 0.113 µM
IC50 [4]: > 50 µM
Structure (SMILES): CC(C)Nc1ccc2c(c1)C(=O)N(C1CCC(=O)NC1=O)C2=O [Compound D-26, 2-(2,6-dioxopiperidin-3-yl)-5-(isopropylamino)isoindoline-1,3-dione]

IC50 (CRBN-DDB1; read-out: CRBN alpha IC50): 0.164 µM
Structure (SMILES): CCN(CC)c1cccc2c1C(=O)N(C1CCC(=O)NC1=O)C2=O [Compound D-21, 4-(diethylamino)-2-(2,6-dioxopiperidin-3-yl)isoindoline-1,3-dione]
Nluc/Fluc IKZF1 Max Degradation [4]: 17.98

IC50 (CRBN-DDB1; read-out: CRBN alpha IC50): 0.147 µM
Structure (SMILES): Cc1cccc2c1C(=O)N(C1CCC(=O)NC1=O)C2=O [Compound D-19, 2-(2,6-dioxopiperidin-3-yl)-4-methylisoindoline-1,3-dione]
Nluc/Fluc IKZF1 Max Degradation [4]: 63.37

IC50 (CRBN-DDB1; read-out: CRBN alpha IC50): 0.493 µM
IC50 [4]: > 50 µM
Structure (SMILES): O=C1CCC(N2C(=O)c3ccc(F)cc3C2=O)C(=O)N1 [Compound D-24, 2-(2,6-dioxopiperidin-3-yl)-5-fluoroisoindoline-1,3-dione]
